Tests used:
bacteria = conditions: relative to azithromycin; cited from earlier work
[1] = system: GM_CSF production in J774 cells; test: Cytokine production in stimulated J774 cells, GM-CSF (ELISA); format: cell-based; conditions: Cond. (medium from J774 cells stimulated 24 h with 0.2 μg/mL LPS)
Experimental: (§1) Various analogs were compared in vitro to determine key properties. Antibacterial effect was determined in representative Gram negative (E. coli) and positive (S. aureus) organisms using the method of example 16. Effects on lung inflammation were compared using the method of example 32. BALF (Bronchoalveolar Lavage Fluid) TNFa levels are determined by ELISA. In vitro toxicity is determined by growth inhibition of Jurkat lymphocytes in DMEM medium as determined using Alamar Blue reaction. Effects on cytokine production are determined in J774 cells stimulated with either LPS (0.1 μg/mL) or medium from J774 cells stimulated for 24 h with 0.2 μg/mL LPS. Cytokines are determined by ELISA and expressed as % DMSO control at 50 μM inhibitor concentration.

[2] = system: IL-10 production in J774 cells; test: Cytokine production in stimulated J774 cells, IL-10 (ELISA); format: cell-based; conditions: Normal (LPS 0.1 μg/mL)
Experimental: as §1

BALF TNFa = test: Airway inflammation by inhaled LPS, BALF TNFa by ELISA; format: in vivo, DBA or Swiss female mice; conditions: 20 μmol/kg i.n., 30 minutes prior to LPS challenge
Experimental: as §1
Airway inflammation is induced by inhalation of solutions containing bacterial LPS. 10 μg per mouse is provided intranasally in phosphate buffered saline. 90 minutes after challenge, bronchioalveolar lavage fluid is recovered from the lung using PBS (0.5 mL) injected into the lung via the trachea and frozen prior to analysis for cytokines by ELISA. TNFa is the primary cytokine measured. Compound 2 and other test substances are dissolved in 0.02% citric acid in water, and the pH of the resulting solution is set to 6.2. Compounds are administered 30 minutes prior to challenge either as 25 μL solutions for intranasal use, or as 125 μL volumes for p.o. application in 25 g DBA or Swiss female mice. The results of said interventions include reduction of lung and/or plasma cytokines. Example data are recorded in FIG. 13.

HeLa = test: Cytotoxicity of the substances (TC50), HeLa; format: cell-based; conditions: HeLa cells
Jurkat = test: Cytotoxicity of the substances (TC50), Jurkat; format: cell-based; conditions: Jurkat cells
[3] = system: IL-12 production in J774 cells; test: Cytokine production in stimulated J774 cells, IL-12 (ELISA); format: cell-based; conditions: Normal (LPS 0.1 μg/mL)
Experimental: as §1

Jurkat lymphocytes = test: In vitro toxicity: growth inhibition of Jurkat lymphocytes, Alamar Blue; format: cell-based; conditions: DMEM medium
Experimental: as §1

S. aureus = test: Antibiotic dilution assay, S. aureus; format: cell-based; conditions: Staphylococcus aureus; liquid medium, OD600; read-out: Bacterial IC 50 (μM) S. Aureus
Experimental: (§2) The antibiotic activity of the compounds was determined via antibiotic dilution assay. After filling 100 μl growth medium into all the wells of a 96 well plate, the compounds were diluted from 1 mM to 0.010 μM. The growth control wells contained growth medium instead of inhibitory agents. The inhibitory control contained Compound 3 (200 μM). Suspensions of E. coli and B. pumilus in growth medium with an approximate OD600 of 0.03-0.04 were added to the diluted compounds, incubated for 6-8 hours on the shaker at 750 rpm and 37° C. until the growth control had reached an OD600 of about 0.6-0.8. The OD600 was then determined on a standard plate reader.
as §1

E. coli = test: Antibiotic dilution assay, E. coli; format: cell-based; conditions: Escherichia coli; liquid medium, OD600; read-out: Bacterial IC 50 (μM) E. Coli
Experimental: as §2, §1

[4] = system: TNFa production in J774 cells; test: Cytokine production in stimulated J774 cells, TNFa (ELISA); format: cell-based; conditions: Normal (LPS 0.1 μg/mL)
Experimental: as §1

[5] = Exposure by LCMS analysis of organs; format: in vivo, bALBc mice
Experimental: (§3) To determine the potential for toxic effects of compound 2 in higher animals, compound 2 was administered to bALBc mice orally as a suspension up to a dose of 400 μmole/kg/day for 7 days.
Exposure to the compound was confirmed using LCMS analysis of organs. […] A mild increase in Compound 2 concentration relative the average bodily dose in liver and spleen is clear after 2 h. In kidney the increase appears later, after 24 h.

DSS induced colitis = test: Dextransulfate (DSS) model of inflammatory bowel disease; format: in vivo, female C57BLK6 mice; conditions: DSS 2.5% W/V in drinking water; relative to known compounds such as sulfasalazine
Text: Dextransulfate (DSS) is used to induce an inflammatory state in the gut of mice by providing it in the drinking water. In our model, DSS (ICN) was used at 2.5% W/V in drinking water for female C57BLK6 mice (ca. 20 g). Weight was monitored daily as were diarrhea, overall condition and occult blood. Depending on severity, animals were recovered at 5, 7 or 12 days after onset of DSS treatment, and colon and intestine material recovered for histological examination.

HepG2 = test: Cytotoxicity of the substances (TC50), HepG2; format: cell-based; parameters: unit not given beside the values; conditions: HepG2 cells
collagen arthritis model = test: Collagen arthritis model; format: in vivo, Male DBA mice; conditions: administered prior to or at the start of arthritis; 2 to 40 μmol kg−1; vs vehicle
Experimental: The data are obtained using the collagen arthritis model. Male DBA mice (18-22 g) are subcutaneously injected at the tail base with bovine type II collagen (100 μL) on day 1 and day 21. Onset of arthritis occurs over the next 5 days. Treatments are typically selected from A) a mixture of a Compound such as Compound 2 (between 2 to 40 μmol kg^−1) and the vehicle which is typically 1% citratic acid in water or similar. The effect of treatment on arthritis is monitored daily by assessing body weight, paw thickness and qualitative evidence of arthritis (scored from 0 to 3, 0=no evidence of arthritis or inflammation, 3=frank swelling of the paw). At the end of qualitative assessment, animals are sacrificed for toxicological, histological and pathological analysis.

hERG = molecular target: T1, hERG (Homo sapiens, UniProt Q12809); test: hERG inhibition in Chinese hamster ovary cells expressing the hERG c-DNA (K+ currents); format: cell-based; conditions: CHO cells expressing hERG
T1 construct: expressed in transfected cells; host or cells: Chinese hamster ovary (CHO) cells
Experimental: A major drawback of macrocycles is the inhibition of cardiac ion channels and specifically the channel encoded by the hERG gene inhibition of which is associated with “long Q-T” syndrome in some patients. To determine risk of hERG inhibition, Compounds 2 and 3 were incubated with Chinese hamster ovary cells expressing the hERG c-DNA resulting in detectable K+ currents associated with hERG at the cell surface.

[6] = Toxicity on oral administration for 7 days; format: in vivo; conditions: orally as a suspension up to 400 μmole/kg/day for 7 days
Experimental: as §3

Ames test (mutagenicity) = format: cell-based; conditions: up to 800 μg/plate (approx. 70 μM); absence and presence of metabolically active liver extract
Experimental: The Ames test is well known in the art. To determine the mutagenic potential of compound 2, it was conducted up to a concentration of 800 μg/plate (approx. 70 μM, considering 20 ml medium in a petri dish).

plasma TNFalpha = test: Liver inflammation induced by LPS, plasma TNFalpha; format: in vivo, Lewis rats; conditions: 10 or 50 mg/kg; LPS 4 mg/kg i.p.; relative to vehicle treated controls
Experimental: FIG. 12. Plasma TNFa production in Lewis rats in which liver damage is induced via injection of LPS (4 mg/kg), data are the mean of N=8 and are plotted with the 95% confidence interval.
Application of high doses of LPS, e.g. 4 mg/kg i.p. results in the induction of liver inflammation and necrosis. This is reflected in signs such as elevated plasma TNFalpha levels. […] Data are recorded in FIG. 12.

T1 sequence (Q12809 whole entry): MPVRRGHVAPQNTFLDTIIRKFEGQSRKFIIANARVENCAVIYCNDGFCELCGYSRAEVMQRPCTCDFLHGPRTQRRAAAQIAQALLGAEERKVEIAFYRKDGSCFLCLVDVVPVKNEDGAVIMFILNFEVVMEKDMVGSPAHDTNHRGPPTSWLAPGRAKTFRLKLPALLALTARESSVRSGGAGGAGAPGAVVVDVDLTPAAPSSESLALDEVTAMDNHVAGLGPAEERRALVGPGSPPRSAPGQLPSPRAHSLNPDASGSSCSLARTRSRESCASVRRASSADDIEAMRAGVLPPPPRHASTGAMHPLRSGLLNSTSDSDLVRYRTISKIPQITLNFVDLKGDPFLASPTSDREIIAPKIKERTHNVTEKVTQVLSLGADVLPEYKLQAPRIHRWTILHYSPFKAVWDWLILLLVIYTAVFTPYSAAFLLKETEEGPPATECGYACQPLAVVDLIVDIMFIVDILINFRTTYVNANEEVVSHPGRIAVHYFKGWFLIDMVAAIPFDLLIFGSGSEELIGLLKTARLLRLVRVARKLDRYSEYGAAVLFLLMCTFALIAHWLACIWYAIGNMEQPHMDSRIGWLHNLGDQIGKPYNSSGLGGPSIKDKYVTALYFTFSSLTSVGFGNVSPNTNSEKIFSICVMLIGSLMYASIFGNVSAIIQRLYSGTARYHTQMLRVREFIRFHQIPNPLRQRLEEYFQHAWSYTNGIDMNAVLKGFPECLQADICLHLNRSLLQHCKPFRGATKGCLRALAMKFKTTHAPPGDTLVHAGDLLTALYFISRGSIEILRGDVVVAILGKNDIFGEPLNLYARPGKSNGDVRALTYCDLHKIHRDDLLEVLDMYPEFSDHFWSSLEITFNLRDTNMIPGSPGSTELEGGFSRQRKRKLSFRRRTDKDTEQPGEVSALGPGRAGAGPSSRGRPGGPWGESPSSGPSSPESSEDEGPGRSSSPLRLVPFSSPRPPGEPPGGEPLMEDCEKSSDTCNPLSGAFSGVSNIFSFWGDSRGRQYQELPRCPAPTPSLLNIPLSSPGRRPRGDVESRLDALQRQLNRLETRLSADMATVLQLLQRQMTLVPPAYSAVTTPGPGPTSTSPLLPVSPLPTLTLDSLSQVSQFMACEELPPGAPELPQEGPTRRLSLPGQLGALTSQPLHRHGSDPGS

Row | SMILES | Cytokine production in J774 cells as % DMSO control, GM_CSF Cond. 50 μM [1] [% DMSO control] | Cytokine production in J774 cells as % DMSO control, IL-10 Normal 50 μM [2] [% DMSO control] | BALF TNFa (% Vehicle) 20 μmol/kg i.n. (BALF TNFa) [% Vehicle] | TC50 HeLa (HeLa) | TC50 Jurkat (Jurkat) | Cytokine production in J774 cells as % DMSO control, IL-12 Normal 50 μM [3] [% DMSO control] | Jurkat Cell toxicity Normal growth limit (Jurkat lymphocytes) [µM] | IC50 (S. aureus) [µM] | IC50 (E. coli) [µM] | Cytokine production in J774 cells as % DMSO control, TNFa Normal 50 μM [4] [% DMSO control] | also measured
1 | CC[C@H]1OC(=O)[C@H](C)[C@@H](O)[C@H](C)[C@@H](O[C@@H]2O[C@H](C)C[C@H](N(C)C)[C@H]2O)[C@](C)(O)C[C@@H](C)CN(C)[C@H](C)[C@@H](O)[C@]1(C)O [decladinosyl azithromycin] |  |  |  |  |  |  |  |  |  |  | antibacterial effectiveness, fold less effective than the cladinosylated molecule (bacteria): ca. 5 fold
2 | CC[C@H]1OC(=O)[C@H](C)[C@@H](O[C@H]2C[C@@](C)(OC)[C@@H](O)[C@H](C)O2)[C@H](C)[C@@H](O[C@@H]2O[C@H](C)C[C@H](N(C)C)[C@H]2O)[C@](C)(O)C[C@@H](C)CN(C)[C@H](C)[C@@H](O)[C@]1(C)O [Compound 3, 9a-aza-9a-methyl-9-deoxo-9a-homoerythromycin A, reference compound] | 118 | 122 | 75 | > 100 µM | > 100 µM | 60 | 100 | 2.25 | 5.5 | 96 | 
3 | CC[C@H]1OC(=O)[C@H](C)C2(O)O[C@](C)(C[C@@H](C)CN(C)[C@H](C)[C@@H](O)[C@]1(C)O)[C@H](O[C@@H]1O[C@H](C)CC(N(C)C)[C@H]1O)[C@H]2C (stereo partly shown) [Compound 2] | 160 | 115 | 75 | >100 | 40 | 42 | 100 | 1340 | 1000 | 68 | accumulation in organs ([5]; kidney, liver and spleen, LCMS, oral dosing): slightly accumulated in kidney, liver and spleen; fraction of the initial value detectable in organs ([5]; within 24 h): more than 50%; diarrhea severity (DSS induced colitis): reductions in diarrhea severity; mortality (DSS induced colitis): reduced mortality; weight loss (DSS induced colitis): protection against weight loss; TC50 HepG2 (HepG2): 90; arthritis score (collagen arthritis model): reductions in score; loss in body weight associated with arthritis (collagen arthritis model): reduces loss in body weight; paw swelling (collagen arthritis model): reductions in score, paw swelling; hERG inhibition, potency relative to Compound 3 (hERG): less potent inhibitor than the commercially available Compound 3; gross toxic effect / weight gain [6]: continued to gain weight during this period suggesting no gross toxic effect; mutagenic activity (Ames test) (Ames test (mutagenicity)): no mutagenic activity; plasma TNF levels (plasma TNFalpha): reduce plasma TNF levels relative to vehicle treated controls

From patent US9145436B2 (priority 2010, dated 2015)
